For series [1], the system named is Smn protein in SMA patient fibroblast cells (GM03813). Put plainly: Smn protein assay in cultured cells (SMN HTRF). The class given is cell-based, human. The following applies: SMA patient fibroblast cells, 48 hours; for EC1.5x for Smn protein expression: 7-point concentration curve, SMN HTRF, concentration producing 1.5 times Smn protein vs DMSO vehicle control; for maximum fold (Fold) increase of Smn protein: 7-point concentration data, fold relative to vehicle control. In a few lines: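 Smn protein quantified by HTRF with anti-SMN d2/kryptate pair, 665/620 nm ratio blank-corrected, in RIPA lysates of GM03813 fibroblasts after 48 h compound exposure (7 concentrations, 3.16-fold steps, triplicates). Values: concentration producing 1.5× vehicle Smn level, and maximal fold increase.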

Series [2] relates to SMN2 minigene mRNA (SMN2-A minigene) in HEK293H cells. Put plainly: SMN2 minigene mRNA splicing RT-qPCR assay in cultured cells. The following applies: Homo sapiens, HEK293-H; concentration increasing full length SMN2 mRNA 1.5-fold relative to vehicle-treated cells; HEK293H cells with SMN2-A minigene, 24 hours, 7-point concentration data; read-out: EC1.5x for production of full length SMN2 mRNA. The class given is cell-based, human. In a few lines: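 EC1.5× = concentration raising full-length SMN2 minigene mRNA 1.5-fold over vehicle, from 7-point curves in duplicate. Stably transfected HEK293H cells exposed 24 h at 37 °C; lysates assayed by multiplex RT-qPCR, minigene FL signal normalized to GAPDH via modified ΔΔCt.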

As for `CCN1CC=C(c2ccc3nc(-c4ccc(OC)c(OC)c4)cc(=O)n3c2)CC1` [Compound 370, 2-(3,4-dimethoxyphenyl)-7-(1-ethyl-1,2,3,6-tetrahydropyridin-4-yl)-4H-pyrido[1,2-a]pyrimidin-4-one], the melting point (commonly the temperature, or range, at which the solid turns liquid) was 170 to 172 °C. Further, in series [1], the “EC1.5x for Smn protein expression” value is “*** (an EC1.5× between >0.3 μM and ≤1 μM is indicated by three stars (***))”; the “maximum fold (Fold) increase of Smn protein” value (“maximum fold (Fold) increase” below) is “***** (a fold increase >1.65 is indicated by five stars (*****))”. For the same molecule, in series [2], the EC (1.5-fold increase) lay in the range of 0.1 to 0.3 µM.

`COc1ccc(-c2ccc3nc(C4=CCNCC4)cc(=O)n3c2)cc1OC` [Compound 371, 7-(3,4-dimethoxyphenyl)-2-(1,2,3,6-tetrahydropyridin-4-yl)-4H-pyrido[1,2-a]pyrimidin-4-one] returned a melting point of 172 to 178 °C. In series [1], the “EC1.5x for Smn protein expression” value is “*** (an EC1.5× between >0.3 μM and ≤1 μM is indicated by three stars (***))”; the “maximum fold (Fold) increase” value is “**** (a fold increase between >1.5 and ≤1.65 is indicated by four stars (****))”. The EC (1.5-fold increase) in series [2] was in the range of 0.1 to 0.3 µM.

Turning to `Cc1cn2cc(-c3cc(=O)n4cc(N5CCN(C(C)C)CC5)ccc4n3)cc(F)c2n1` [Compound 373, 2-(8-fluoro-2-methylimidazo[1,2-a]pyridin-6-yl)-7-[4-(propan-2-yl)piperazin-1-yl]-4H-pyrido[1,2-a]pyrimidin-4-one], the melting point is 260 to 264 °C. Also, in series [1], the “EC1.5x for Smn protein expression” value is given as “**** (an EC1.5x≤0.3 μM is indicated by four stars (****))”; the “maximum fold (Fold) increase” value is “**** (a fold increase between >1.5 and ≤1.65 is indicated by four stars (****))”. Further, the EC (1.5-fold increase) in series [2] is under 0.1 µM.

On to `Cc1cn2cc(-c3cc(=O)n4cc(N5CCN(C(C)C)CC5)ccc4n3)cc(Cl)c2n1` [Compound 374, 2-(8-chloro-2-methylimidazo[1,2-a]pyridin-6-yl)-7-[4-(propan-2-yl)piperazin-1-yl]-4H-pyrido[1,2-a]pyrimidin-4-one], for which the melting point lay in the range of 287 to 292 °C. In series [1], the “EC1.5x for Smn protein expression” value is “**** (an EC1.5x≤0.3 μM is indicated by four stars (****))” and the “maximum fold (Fold) increase” value was “***** (a fold increase >1.65 is indicated by five stars (*****))”. For the same molecule, the EC (1.5-fold increase) in series [2] was under 0.1 µM.

`Cc1cn2cc(-c3ccc4nc(C5=CCNCC5)cc(=O)n4c3)ccc2n1` [Compound 375, 7-(2-methylimidazo[1,2-a]pyridin-6-yl)-2-(1,2,3,6-tetrahydropyridin-4-yl)-4H-pyrido[1,2-a]pyrimidin-4-one]: the melting point fell in the range of 197 to 201 °C. In addition, in series [1], the “EC1.5x for Smn protein expression” value is “**** (an EC1.5x≤0.3 μM is indicated by four stars (****))”; the “maximum fold (Fold) increase” value was “**** (a fold increase between >1.5 and ≤1.65 is indicated by four stars (****))”. In addition, the EC (1.5-fold increase) in series [2] is under 0.1 µM.

Take `Cc1cn2cc(-c3ccc4nc(C5=CCN(C)CC5)cc(=O)n4c3)ccc2n1` [Compound 376, 7-(2-methylimidazo[1,2-a]pyridin-6-yl)-2-(1-methyl-1,2,3,6-tetrahydropyridin-4-yl)-4H-pyrido[1,2-a]pyrimidin-4-one]: the melting point was in the range of 203 to 207 °C. In series [1], the “EC1.5x for Smn protein expression” value is “*** (an EC1.5× between >0.3 μM and ≤1 μM is indicated by three stars (***))”; the “maximum fold (Fold) increase” value is “*** (a fold increase between >1.35 and ≤1.5 is indicated by three stars (***))”. In series [2], the EC (1.5-fold increase) is under 0.1 µM.

Regarding `COc1ccc(-c2ccc3nc(C4=CCN(C)CC4)cc(=O)n3c2)cc1OC` [Compound 377, 7-(3,4-dimethoxyphenyl)-2-(1-methyl-1,2,3,6-tetrahydropyridin-4-yl)-4H-pyrido[1,2-a]pyrimidin-4-one], the melting point fell in the range of 149 to 152 °C. Also, in series [1], the “EC1.5x for Smn protein expression” value is “** (an EC1.5× between >1 μM and ≤3 μM is indicated by two stars (**))”; the “maximum fold (Fold) increase” value was “**** (a fold increase between >1.5 and ≤1.65 is indicated by four stars (****))”. Moreover, in series [2], the EC (1.5-fold increase) was in the range of 0.3 to 1 µM.

`CCCN1CC=C(c2cc(C)c3nc(-c4ccc(OC)c(OC)c4)cc(=O)n3c2)CC1` [Compound 378, 2-(3,4-dimethoxyphenyl)-9-methyl-7-(1-propyl-1,2,3,6-tetrahydropyridin-4-yl)-4H-pyrido[1,2-a]pyrimidin-4-one] had a melting point of 171 to 177 °C. For the same molecule, in series [1], the “EC1.5x for Smn protein expression” value is “** (an EC1.5× between >1 μM and ≤3 μM is indicated by two stars (**))”; the “maximum fold (Fold) increase” value is “**** (a fold increase between >1.5 and ≤1.65 is indicated by four stars (****))”. The EC (1.5-fold increase) in series [2] was under 0.1 µM.

Molecule `COc1ccc(-c2cc(=O)n3cc(C4=CCN(C5CCC5)CC4)cc(C)c3n2)cc1OC` [Compound 379, 7-(1-cyclobutyl-1,2,3,6-tetrahydropyridin-4-yl)-2-(3,4-dimethoxyphenyl)-9-methyl-4H-pyrido[1,2-a]pyrimidin-4-one] displayed a melting point of 167 to 178 °C. Moreover, the “maximum fold (Fold) increase” value in series [1] was “*** (a fold increase between >1.35 and ≤1.5 is indicated by three stars (***))”. Moreover, the EC (1.5-fold increase) in series [2] is 0.1 to 0.3 µM.

Turning to `Cc1nc2ccc(-c3cc(=O)n4cc(N5CCC(N)CC5)ccc4n3)cc2s1` [Compound 381, 7-(4-aminopiperidin-1-yl)-2-(2-methyl-1,3-benzothiazol-6-yl)-4H-pyrido[1,2-a]pyrimidin-4-one], the melting point is 190 to 194 °C. In series [1], the “EC1.5x for Smn protein expression” value was “* (An EC1.5× for Smn protein expression between >3 μM and ≤10 μM is indicated by one star (*))”; the “maximum fold (Fold) increase” value is “*** (a fold increase between >1.35 and ≤1.5 is indicated by three stars (***))”. Moreover, the EC (1.5-fold increase) in series [2] lay within 0.1 to 0.3 µM.

`Cc1nc2ccc(-c3cc(=O)n4cc(N5CCC(N)C5)ccc4n3)cc2s1` (stereo not drawn) [Compound 382, 7-(3-aminopyrrolidin-1-yl)-2-(2-methyl-1,3-benzothiazol-6-yl)-4H-pyrido[1,2-a]pyrimidin-4-one] registered a melting point of 196 to 200 °C. Moreover, in series [1], the “EC1.5x for Smn protein expression” value was “*** (an EC1.5× between >0.3 μM and ≤1 μM is indicated by three stars (***))”; the “maximum fold (Fold) increase” value is “**** (a fold increase between >1.5 and ≤1.65 is indicated by four stars (****))”. In addition, in series [2], the EC (1.5-fold increase) is under 0.1 µM.

`Cc1nc2ccc(-c3cc(=O)n4cc(N5CC[C@@H](N(C)C)C5)ccc4n3)cc2s1` [Compound 383, 7-[(3R)-3-(dimethylamino)pyrrolidin-1-yl]-2-(2-methyl-1,3-benzothiazol-6-yl)-4H-pyrido[1,2-a]pyrimidin-4-one] displayed a melting point of 235 to 240 °C. Also, the “maximum fold (Fold) increase” value in series [1] was “** (a fold increase between >1.2 and ≤1.35 is indicated by two stars (**))”. The EC (1.5-fold increase) in series [2] was 0.3 to 1 µM.

The molecule `Cc1nc2ccc(-c3cc(=O)n4cc(C5=CCNCC5)ccc4n3)cc2s1` [Compound 384, 2-(2-methyl-1,3-benzothiazol-6-yl)-7-(1,2,3,6-tetrahydropyridin-4-yl)-4H-pyrido[1,2-a]pyrimidin-4-one] displayed a melting point of 124 to 126 °C. In series [1], the “EC1.5x for Smn protein expression” value was “**** (an EC1.5x≤0.3 μM is indicated by four stars (****))” and the “maximum fold (Fold) increase” value is “***** (a fold increase >1.65 is indicated by five stars (*****))”. Also, the EC (1.5-fold increase) in series [2] was under 0.1 µM.

As for `COCCN1CCN(c2ccc3nc(-c4cc(F)c5nc(C)cn5c4)cc(=O)n3c2)CC1` [Compound 385, 2-(8-fluoro-2-methylimidazo[1,2-a]pyridin-6-yl)-7-[4-(2-methoxyethyl)piperazin-1-yl]-4H-pyrido[1,2-a]pyrimidin-4-one], the melting point was 258 to 262 °C. Further, in series [1], the “EC1.5x for Smn protein expression” value was “*** (an EC1.5× between >0.3 μM and ≤1 μM is indicated by three stars (***))”; the “maximum fold (Fold) increase” value is on record as “***** (a fold increase >1.65 is indicated by five stars (*****))”. In addition, the EC (1.5-fold increase) in series [2] is under 0.1 µM.

On to `COc1ccc(-c2cc(=O)n3cc(C4=CCN(C5COC5)CC4)cc(C)c3n2)cc1OC` [Compound 386, 2-(3,4-dimethoxyphenyl)-9-methyl-7-[1-(oxetan-3-yl)-1,2,3,6-tetrahydropyridin-4-yl]-4H-pyrido[1,2-a]pyrimidin-4-one], for which the melting point was 180 to 195 °C. Further, the “maximum fold (Fold) increase” value in series [1] is reported as “* (A maximum fold increase of ≤1.2 is indicated by one star (*))”. In addition, the EC (1.5-fold increase) in series [2] lay in the range of 0.3 to 1 µM.

Consider `COc1ccc(-c2cc(=O)n3cc(C4=CCN(C(C)C)CC4)cc(C)c3n2)cc1OC` [Compound 387, 2-(3,4-dimethoxyphenyl)-9-methyl-7-[1-(propan-2-yl)-1,2,3,6-tetrahydropyridin-4-yl]-4H-pyrido[1,2-a]pyrimidin-4-one], for which the melting point was in the range of 153 to 163 °C. Also, the “maximum fold (Fold) increase” value in series [1] was “** (a fold increase between >1.2 and ≤1.35 is indicated by two stars (**))”. The EC (1.5-fold increase) in series [2] was 0.3 to 1 µM.

As for `COc1ccc(-c2cc(=O)n3cc(C4=CCNCC4)c(C)cc3n2)cc1OC` [Compound 389, 2-(3,4-dimethoxyphenyl)-8-methyl-7-(1,2,3,6-tetrahydropyridin-4-yl)-4H-pyrido[1,2-a]pyrimidin-4-one], the melting point was 175 °C (dec.). Also, the “maximum fold (Fold) increase” value in series [1] is “** (a fold increase between >1.2 and ≤1.35 is indicated by two stars (**))”. In addition, the EC (1.5-fold increase) in series [2] fell in the range of 1 to 3 µM.

(Values after patent US11753407B2, “Compounds for treating spinal muscular atrophy” (PTC Therapeutics, Inc., priority 2012, dated 2023).)
